Source: patent US20240358692A1, “TREATMENT OF SCLERODERMA” (Aisa Pharma, Inc., priority 2023, published 2024)

Legend:
participants with SSc-RP = experiment: Average daily Raynaud's Condition Score (RCS); assay type: in vivo, human; design: key to Average Daily RCS, Mean / Average Daily RCS, Median / Average Daily RCS Change from Baseline, Mean / Average Daily RCS Change from Baseline, Median: RCS rated on a 0-10 cm VAS scale; settings: ITT Population - Part A; for Average Daily RCS, Mean / Average Daily RCS, Median: dosing period
Source text: The RCS is based on how much difficulty participants had with Raynaud's today, how many attacks the participant had, and how long they lasted. In addition participants were and will be asked to consider how much pain, numbness, or other symptoms the Raynaud's caused in fingers (including painful sores), and how much the Raynaud's along affected the use of hand today (VAS 0-10 cm scale).
The absolute change in average daily RCS from baseline to the end of each dosing period was and will be a secondary outcome variable. The sponsor-developed participant-informed diary has been and will be used to record data. The average daily RCS is defined as the total RCS divided by the number of days with available diary data of each dosing period. Total RCS during screening period divided by the number of days with available data will be used as baseline for the analysis of all periods. If there are multiple daily RCS scores, the latest daily RCS will be used. The variable will be calculated similar to frequency data as before.

[1] = cilnidipine given orally; cited from earlier work
[2] = Excluding Outliers, dose cilnidipine 10 mg, tadalafil 5 mg, alone or combined as labelled
[3] = Excluding Outliers, dose cilnidipine 20 mg, tadalafil 5 mg, alone or combined as labelled
[4] = Excluding Outliers, pooled arms Cilnidipine 10 mg and Cilnidipine 10 mg + Tadalafil 5 mg
[5] = Excluding Outliers, pooled arms Cilnidipine 20 mg and Cilnidipine 20 mg + Tadalafil 5 mg
[6] = Excluding Outliers, pooled cilnidipine 10 mg and 20 mg arms (combination: + tadalafil 5 mg)
[7] = dose cilnidipine 10 mg, tadalafil 5 mg, alone or combined as labelled
[8] = dose cilnidipine 20 mg, tadalafil 5 mg, alone or combined as labelled
[9] = pooled arms Cilnidipine 10 mg and Cilnidipine 10 mg + Tadalafil 5 mg
[10] = pooled arms Cilnidipine 20 mg and Cilnidipine 20 mg + Tadalafil 5 mg
[11] = pooled cilnidipine 10 mg and 20 mg arms (combination: + tadalafil 5 mg)

COCCOC(=O)C1=C(C)NC(C)=C(C(=O)OC/C=C/c2ccccc2)C1c1cccc([N+](=O)[O-])c1 (stereo not shown) [Cilnidipine]
Average Daily RCS Change from Baseline, Mean (participants with SSc-RP; [2]): −0.98
Average Daily RCS Change from Baseline, Median (participants with SSc-RP; [2]): −0.98
Average Daily RCS Percent Change from Baseline, Mean (participants with SSc-RP; [2]): −35.74%
Average Daily RCS Percent Change from Baseline, Median (participants with SSc-RP; [2]): −35.74%
Average Daily RCS Change from Baseline, Mean (participants with SSc-RP; [3]): −0.45
Average Daily RCS Change from Baseline, Median (participants with SSc-RP; [3]): −0.45
Average Daily RCS Percent Change from Baseline, Mean (participants with SSc-RP; [3]): −17.16%
Average Daily RCS Percent Change from Baseline, Median (participants with SSc-RP; [3]): −17.16%
Average Daily RCS, Mean (participants with SSc-RP; [2]): 1.76
Average Daily RCS, Median (participants with SSc-RP; [2]): 1.76
Average Daily RCS, Mean (participants with SSc-RP; [3]): 2.90
Average Daily RCS, Median (participants with SSc-RP; [3]): 2.90
Average Daily RCS, Mean (participants with SSc-RP; [4]): 2.43
Average Daily RCS, Median (participants with SSc-RP; [4]): 1.76
Average Daily RCS, Mean (participants with SSc-RP; [5]): 3.60
Average Daily RCS, Median (participants with SSc-RP; [5]): 3.82
Average Daily RCS, Mean (participants with SSc-RP; [6]): 2.52
Average Daily RCS, Median (participants with SSc-RP; [6]): 1.76
Average Daily RCS Change from Baseline, Mean (participants with SSc-RP; [4]): −1.64
Average Daily RCS Change from Baseline, Median (participants with SSc-RP; [4]): −1.51
Average Daily RCS Percent Change from Baseline, Mean (participants with SSc-RP; [4]): −41.77%
Average Daily RCS Percent Change from Baseline, Median (participants with SSc-RP; [4]): −36.47%
Average Daily RCS Change from Baseline, Mean (participants with SSc-RP; [5]): −1.08
Average Daily RCS Change from Baseline, Median (participants with SSc-RP; [5]): −0.59
Average Daily RCS Percent Change from Baseline, Mean (participants with SSc-RP; [5]): −18.93%
Average Daily RCS Percent Change from Baseline, Median (participants with SSc-RP; [5]): −20.71%
Average Daily RCS Change from Baseline, Mean (participants with SSc-RP; [6]): −0.63
Average Daily RCS Change from Baseline, Median (participants with SSc-RP; [6]): −0.98
Average Daily RCS Percent Change from Baseline, Mean (participants with SSc-RP; [6]): −23.35%
Average Daily RCS Percent Change from Baseline, Median (participants with SSc-RP; [6]): −35.74%
Average Daily RCS Change from Baseline, Mean (participants with SSc-RP; [7]): −0.98
Average Daily RCS Change from Baseline, Median (participants with SSc-RP; [7]): −0.98
Average Daily RCS Percent Change from Baseline, Mean (participants with SSc-RP; [7]): −35.74%
Average Daily RCS Percent Change from Baseline, Median (participants with SSc-RP; [7]): −35.74%
Average Daily RCS Change from Baseline, Mean (participants with SSc-RP; [8]): −0.45
Average Daily RCS Change from Baseline, Median (participants with SSc-RP; [8]): −0.45
Average Daily RCS Percent Change from Baseline, Mean (participants with SSc-RP; [8]): −17.16%
Average Daily RCS Percent Change from Baseline, Median (participants with SSc-RP; [8]): −17.16%
Average Daily RCS, Mean (participants with SSc-RP; [7]): 1.76
Average Daily RCS, Median (participants with SSc-RP; [7]): 1.76
Average Daily RCS, Mean (participants with SSc-RP; [8]): 2.90
Average Daily RCS, Median (participants with SSc-RP; [8]): 2.90
Average Daily RCS, Mean (participants with SSc-RP; [9]): 2.43
Average Daily RCS, Median (participants with SSc-RP; [9]): 1.76
Average Daily RCS, Mean (participants with SSc-RP; [10]): 3.60
Average Daily RCS, Median (participants with SSc-RP; [10]): 3.82
Average Daily RCS, Mean (participants with SSc-RP; [11]): 2.52
Average Daily RCS, Median (participants with SSc-RP; [11]): 1.76
Average Daily RCS Change from Baseline, Mean (participants with SSc-RP; [9]): −1.64
Average Daily RCS Change from Baseline, Median (participants with SSc-RP; [9]): −1.51
Average Daily RCS Percent Change from Baseline, Mean (participants with SSc-RP; [9]): −41.77%
Average Daily RCS Percent Change from Baseline, Median (participants with SSc-RP; [9]): −36.47%
Average Daily RCS Change from Baseline, Mean (participants with SSc-RP; [10]): −1.08
Average Daily RCS Change from Baseline, Median (participants with SSc-RP; [10]): −0.59
Average Daily RCS Percent Change from Baseline, Mean (participants with SSc-RP; [10]): −18.93%
Average Daily RCS Percent Change from Baseline, Median (participants with SSc-RP; [10]): −20.71%
Average Daily RCS Change from Baseline, Mean (participants with SSc-RP; [11]): −0.63
Average Daily RCS Change from Baseline, Median (participants with SSc-RP; [11]): −0.98
Average Daily RCS Percent Change from Baseline, Mean (participants with SSc-RP; [11]): −23.35%
Average Daily RCS Percent Change from Baseline, Median (participants with SSc-RP; [11]): −35.74%
protein bound [1]: 98%
